Laboratory results: US10829473B2, “Modulators of the cystic fibrosis transmembrane conductance regulator protein and methods of use” (AbbVie Overseas S.Á.R.L., priority 2017, dated 2020)
Like-named read-outs stand apart in the source and are kept apart here. Marks after values point to notes of the source that are not given here.

Molecular target: T1, F508delCFTR (Homo sapiens, UniProt P13569, DEL508-508)
T1 construct: expressed in transfected cells; host or cells: CFBE41o- human lung derived epithelial cells (CFBE41o-F508delCFTR-HRP), doxycycline-inducible
Assay: Cell Surface Expression-Horse Radish Peroxidase (CSE-HRP) Assay
Type: cell-based
Conditions: for Maximum % activity (with co-corrector) / Emax: maximum at any tested concentration; for Emax: read-out: Maximum % activity (without co-corrector)
Description: A cellular assay for measuring the F508delCFTR cell surface expression after correction with test compounds either without or with a co-corrector (2 μM of 3-[(2R,4R)-4-({[1-(2,2-difluoro-1,3-benzodioxol-5-yl)cyclopropyl]carbonyl}amino)-7-methoxy-3,4-dihydro-2H-chromen-2-yl]benzoic acid), was developed in human lung derived epithelial cell line (CFBE4lo−) (Veit G et al, (2012) Mol Biol Cell. 23(21): 4188-4202). The development was achieved by expressing the F508delCFTR mutation along with a horseradish peroxidase (HRP) in the fourth exofacial loop, and then measuring the HRP activity using luminescence readout from these cells, CFBE410-F508delCFTR-HRP, that were incubated overnight with the test corrector compounds, either without or with the co-corrector. For this primary assay, the CFBE410-F508delCFTR-HRP cells were plated in 384-well plates (Greiner Bio-one; Cat 781080) at 4,000 cells/well along with 0.5 μg/mL doxycycline to induce the F508delCFTR-HRP expression and further incubated at 37° C., 5% CO2 for 68-72 hours. The test compounds were then added either without or with a co-corrector at the required concentrations and further incubated for 18-24 hours at 33° C. The highest concentration tested was 20 μM or 30 μM (GI-1 to GIII-36) with an 8-point concentration response curve using a 3-fold dilution in both the test compound without or with the co-corrector. Three replicate plates were run to determine one EC50. All plates contained negative controls (dimethyl sulfoxide, DMSO) and positive control (2 μM or 3 μM (GI-1 to GIII-36) of 3-[(2R,4R)-4-({[1-(2,2-difluoro-1,3-benzodioxol-5-yl)cyclopropyl]carbonyl}amino)-7-methoxy-3,4-dihydro-2H-chromen-2-yl]benzoic acid) as well as on-plate concentration response of the positive control. Post incubation, the plates were washed 5× times with Dulbecco's phosphate buffered saline (DPBS), followed by the addition of the HRP substrate, luminol (50 4), and measuring the HRP activity using luminescence readout on EnVision® Multilabel Plate Reader (Perkin Elmer; product number 2104-0010). The raw counts from the experiment were analyzed using Accelrys® Assay Explorer v3.3.
Z′ greater than 0.5 was used as passing quality control criteria for the plates.
The Z′ is defined as: 1−[3*SDPositve Control+3*SDNegative Control/Absolute(MeanPositive Control−MeanNegative Control)] wherein “SD” is standard deviation.
The % activity measured at each of the 8 test concentrations of the test compound added either without or with a co-corrector (2 μM or 3 μM (GI-1 to GIII-36) of 3-[(2R,4R)-4-({[1-(2,2-difluoro-1,3-benzodioxol-5-yl)cyclopropyl]carbonyl}amino)-7-methoxy-3,4-dihydro-2H-chromen-2-yl]benzoic acid) was normalized to the on-plate positive control using the following formulae: % activity (Test compound without co-corrector)=[(test compound without co-corrector response DMSO response)/(positive control response DMSO response)]*100 % activity (Test compound with co-corrector)=[(test compound with co-corrector response DMSO response)/(positive control response DMSO response)]*100
The maximum % activity achieved for the test compound either without or with a co-corrector at any tested concentration is presented in Table 6 along with the respective EC50's calculated using the following general sigmoidal curve with variable Hill slope equation (described as Model 42 in the Accelrys® Assay Explorer v3.3 software): y=(a−d)/(1+(x/c)b)+d
General sigmoidal curve with concentration, response, top, bottom, EC50 and Hill slope. This model describes a sigmoidal curve with an adjustable baseline, a. The equation can be used to fit curves where response is either increasing or decreasing with respect to the independent variable, “x”.
“x” is a concentration of drug under test.
“a” is the maximum response, and “d” is the minimum response
“c” is the inflection point (EGO for the curve. That is, “y” is halfway between the lower and upper asymptotes when x=c.
“b” is the slope-factor or Hill coefficient. […]

[1] = test compound with co-corrector
[2] = test compound with co-corrector, read-out: EC50 (with co-corrector)
[3] = test compound without co-corrector
[4] = test compound without co-corrector, read-out: EC50 (without co-corrector)
[5] = test compound alone, without co-corrector, read-out: EC50 (without co-corrector)
[6] = with co-corrector, read-out: EC50 (with co-corrector)

T1 sequence (P13569 with tags, fused parts or gaps DEL508-508): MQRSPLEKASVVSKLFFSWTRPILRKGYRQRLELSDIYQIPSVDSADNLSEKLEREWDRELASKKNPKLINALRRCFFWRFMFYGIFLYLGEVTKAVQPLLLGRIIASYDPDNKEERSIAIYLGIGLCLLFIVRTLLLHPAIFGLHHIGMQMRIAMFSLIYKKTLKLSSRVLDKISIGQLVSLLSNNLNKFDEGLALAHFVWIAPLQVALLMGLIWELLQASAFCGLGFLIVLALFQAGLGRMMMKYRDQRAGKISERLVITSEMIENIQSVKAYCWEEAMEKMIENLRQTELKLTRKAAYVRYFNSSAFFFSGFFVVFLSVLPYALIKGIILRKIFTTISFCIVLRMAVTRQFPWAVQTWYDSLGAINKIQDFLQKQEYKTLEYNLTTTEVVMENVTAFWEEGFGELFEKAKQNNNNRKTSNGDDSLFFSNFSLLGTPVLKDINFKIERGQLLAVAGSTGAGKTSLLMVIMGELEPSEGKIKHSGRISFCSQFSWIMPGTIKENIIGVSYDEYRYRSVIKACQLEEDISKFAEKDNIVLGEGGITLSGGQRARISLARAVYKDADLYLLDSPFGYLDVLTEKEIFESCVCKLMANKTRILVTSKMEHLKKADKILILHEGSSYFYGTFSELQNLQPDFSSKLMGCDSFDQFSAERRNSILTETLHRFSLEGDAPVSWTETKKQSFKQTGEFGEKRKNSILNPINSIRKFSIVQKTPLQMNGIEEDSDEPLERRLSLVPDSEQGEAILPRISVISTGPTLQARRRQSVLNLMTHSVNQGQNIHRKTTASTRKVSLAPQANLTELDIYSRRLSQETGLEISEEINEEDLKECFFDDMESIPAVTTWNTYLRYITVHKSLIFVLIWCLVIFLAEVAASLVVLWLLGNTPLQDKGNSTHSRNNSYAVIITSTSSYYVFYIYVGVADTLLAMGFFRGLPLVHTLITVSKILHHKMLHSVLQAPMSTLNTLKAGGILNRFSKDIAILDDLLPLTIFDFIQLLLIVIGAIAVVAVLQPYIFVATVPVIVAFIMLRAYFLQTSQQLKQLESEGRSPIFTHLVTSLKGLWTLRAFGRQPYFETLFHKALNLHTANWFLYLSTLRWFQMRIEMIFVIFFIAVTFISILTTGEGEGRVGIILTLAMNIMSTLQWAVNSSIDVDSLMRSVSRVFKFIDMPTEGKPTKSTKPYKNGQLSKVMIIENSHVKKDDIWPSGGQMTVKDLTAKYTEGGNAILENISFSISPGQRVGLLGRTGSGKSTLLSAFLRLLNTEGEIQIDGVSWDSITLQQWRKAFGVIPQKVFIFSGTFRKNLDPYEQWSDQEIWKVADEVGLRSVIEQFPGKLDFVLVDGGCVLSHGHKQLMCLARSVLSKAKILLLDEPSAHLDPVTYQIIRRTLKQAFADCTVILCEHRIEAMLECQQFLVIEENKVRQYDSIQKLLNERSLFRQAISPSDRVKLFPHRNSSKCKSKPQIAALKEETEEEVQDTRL

SMILES	Maximum % activity (with co-corrector) [1]	EC50 [2] [µM]	Emax [3] [%]	EC50 [4] [µM]	EC50 [5] [µM]	Maximum % activity (with co-corrector) (with co-corrector)	EC50 [6] [µM]	Emax (without co-corrector) [%]	EC50 (with co-corrector) [1]	EC50 (without co-corrector) [3]
COc1cnc(OCC(C)C)c(C2(C(=O)NS(=O)(=O)c3cccc4ncccc34)CC2)c1 [Example GI-77, 1-[5-methoxy-2-(2-methylpropoxy)pyridin-3-yl]-N-(quinoline-5-sulfonyl)cyclopropane-1-carboxamide]	+++ (≥350)	< 3	> 150	< 3	–	–	–	–	–	–
CCc1cnc(OCC2CC2)c(C2(C(=O)NS(=O)(=O)c3cccc4[nH]ccc34)CC2)c1 [Example GI-108, 1-[2-(cyclopropylmethoxy)-5-ethylpyridin-3-yl]-N-(1H-indole-4-sulfonyl)cyclopropane-1-carboxamide]	+++ (≥350)	< 3	> 150	< 3	–	–	–	–	–	–
COc1ncc(C(F)(F)F)cc1C1(C(=O)NS(=O)(=O)c2cccn3nccc23)CC1 [Example III-95, 1-[2-methoxy-5-(trifluoromethyl)pyridin-3-yl]-N-(pyrazolo[1,5-a]pyridine-4-sulfonyl)cyclopropane-1-carboxamide]	–	–	–	–	3 to 10	+++ (≥350)	3 to 10	> 150	–	–
CCc1cnc(OCC2CC2)c(C2(C(=O)NS(=O)(=O)c3cccc4nc(C)ccc34)CC2)c1 [Example GI-107, 1-[2-(cyclopropylmethoxy)-5-ethylpyridin-3-yl]-N-(2-methylquinoline-5-sulfonyl)cyclopropane-1-carboxamide]	+++ (≥350)	< 3	> 150	< 3	–	–	–	–	–	–
COc1cc(C2(C(=O)NS(=O)(=O)c3cccc4ncccc34)CC2)c(OCC(C)C)cn1 [Example GI-19, 1-[2-methoxy-5-(2-methylpropoxy)pyridin-4-yl]-N-(quinoline-5-sulfonyl)cyclopropane-1-carboxamide]	–	–	–	–	3 to 10	+++ (≥350)	< 3	> 150	–	–
COc1ccc(C)nc1C1(C(=O)NS(=O)(=O)c2cccc3ccccc23)CC1 [Example III-125, 1-(3-methoxy-6-methylpyridin-2-yl)-N-(naphthalene-1-sulfonyl)cyclopropane-1-carboxamide]	–	–	–	–	3 to 10	+++ (≥350)	3 to 10	> 150	–	–
COc1ccc(C2CC2)cc1C1(C(=O)NS(=O)(=O)c2cccc3c2CCCN3)CCC1 [Example I-27, 1-(5-cyclopropyl-2-methoxyphenyl)-N-(1,2,3,4-tetrahydroquinoline-5-sulfonyl)cyclobutane-1-carboxamide]	–	–	–	–	3 to 10	+++ (≥350)	< 3	> 150	–	–
Cc1ccc2c(S(=O)(=O)NC(=O)C3(c4cc(Cl)cnc4N4CCCC4)CC3)cccc2n1 [Example GI-36, 1-[5-chloro-2-(pyrrolidin-1-yl)pyridin-3-yl]-N-(2-methylquinoline-5-sulfonyl)cyclopropane-1-carboxamide]	+++ (≥350)	< 3	> 150	3 to 10	–	–	–	–	–	–
Cc1ccc(S(=O)(=O)NC(=O)C2(c3cccc(Cl)c3)CC2)nc1 [Example III-84, 1-(3-chlorophenyl)-N-(5-methylpyridine-2-sulfonyl)cyclopropane-1-carboxamide]	–	–	–	–	> 10	+ (<150)	> 10	< 50	–	–

More lines, now with the values ahead:

Maximum % activity (with co-corrector) [1]	EC50 [2] [µM]	Emax [3] [%]	EC50 [4] [µM]	EC50 [5] [µM]	Maximum % activity (with co-corrector) (with co-corrector)	EC50 [6] [µM]	Emax (without co-corrector) [%]	EC50 (with co-corrector) [1]	EC50 (without co-corrector) [3]	SMILES
++ (≥150 and <350)	–	50 to 150	–	–	–	–	–	++^a	++^a	COc1cc(C2(C(=O)NS(=O)(=O)c3cccc4ncccc34)CC2)c(OCC(F)F)cn1 [GIII-18]
+++ (≥350)	3 to 10	> 150	3 to 10	–	–	–	–	–	–	COc1cc(C2(C(=O)NS(=O)(=O)c3cccc4nc(C)ccc34)CC2)c(OCC(F)F)cn1 [GIII-14]
+ (<150)	> 10	< 50	> 10	–	–	–	–	–	–	Cc1cnc(F)cc1C1(C(=O)NS(=O)(=O)c2cccc3ncccc23)CC1 [GIII-16]
